Test results published in patent publication US20070197509A1, “Compositions and methods for modulating gated ion channels” (PainCeptor Pharma Corporation, priority 2005, published 2007).
Entries after “also recorded” stand apart in the source; their conditions may differ.

Tests used:
hASIC3 [1] = target: T1, hASIC3 (Homo sapiens, UniProt Q9UHC3); assay: Whole-cell patch clamp of acid-evoked currents in CHO cells transfected with hASIC3; format: cell-based; parameters: expressed in transfected cells
T1 sequence (Q9UHC3 1-531): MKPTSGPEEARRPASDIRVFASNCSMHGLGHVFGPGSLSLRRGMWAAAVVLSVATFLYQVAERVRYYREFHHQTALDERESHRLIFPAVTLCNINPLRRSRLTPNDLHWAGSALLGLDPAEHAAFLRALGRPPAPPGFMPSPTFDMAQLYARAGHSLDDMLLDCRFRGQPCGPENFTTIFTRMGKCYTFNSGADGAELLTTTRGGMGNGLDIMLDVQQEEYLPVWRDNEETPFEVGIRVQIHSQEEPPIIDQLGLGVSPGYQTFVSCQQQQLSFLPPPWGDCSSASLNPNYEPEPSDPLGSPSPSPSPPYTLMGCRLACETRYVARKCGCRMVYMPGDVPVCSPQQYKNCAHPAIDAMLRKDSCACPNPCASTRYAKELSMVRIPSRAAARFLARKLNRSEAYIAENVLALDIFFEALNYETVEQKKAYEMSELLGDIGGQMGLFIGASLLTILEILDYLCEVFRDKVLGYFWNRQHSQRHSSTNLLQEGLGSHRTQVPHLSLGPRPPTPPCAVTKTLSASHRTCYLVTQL
Method: All experiments are performed at room temperature (20-25° C.) in voltage clamp using conventional whole cell patch clamp methods (Neher, E., et al. (1978) Pfluegers Arch 375:219-228).
Coverslips with the cells are transferred to a 15 μl experimental chamber mounted on the stage of an inverted microscope (IMT-2, Olympus) supplied with Nomarski optics. Cells are continuously superfused with extracellular saline at a rate of 2.5 ml/min. After giga-seal formation, the whole cell configuration is attained by suction. The cells are held at a holding voltage of −60 mV and at the start of each experiment the current is continuously measured for 45 s to ensure a stable baseline. […] Current amplitudes are measured at the peak of the responses, and effect of the compounds is calculated as the amplitude at compound equilibrium divided by the amplitude of the current evoked by the pulse just before the compound was included. […]
FIG. 3 compares the selectivity of Compound R for human ASIC1a versus human ASIC3, both stably transfected in CHO cells. […] FIG. 3C compares the dose-response relationship of Compound R on hASIC1a and hASIC3 [determined by measuring the area under the curve of the response (total charge transfer) and normalized to the control response].

hASIC3 [2] = target: T1, hASIC3; assay: FlexStation assay on HEK293 cells expressing hASIC3; format: cell-based; parameters: expressed in transfected cells; host or cells: HEK293 cells; conditions: FlexStation (Flex), Tables A-F; read-out: Biological Data (IC50 uM) h3 (Flex)

- Biological Data (IC50 uM) h3 (PC) (hASIC3 [1]; patch clamp (PC), Table A): inactive
- IC50 (hASIC3 [2]): 5 to 15 µM
SMILES: Cc1cc(OC2CCN(Cc3ccccc3)CC2)c2ccccc2n1 [Compound R, 4-(1-benzyl-piperidin-4-yloxy)-2-methyl-quinoline]
- effect on acid evoked hASIC3 current amplitude (FIG. 3B) (hASIC3 [1]; 30 μM, CHO cells): failed to reduce the amplitude of the current; also recorded: failed to inhibit
